Results from the supplement of paper PMC10307832.

Columns and labels:
Test in all cases: relative viability (nuclei count vs DMSO), 5 days (fraction); higher = more cells survive
Vemurafenib + Navitoclax = compound: CCCS(=O)(=O)Nc1ccc(F)c(C(=O)c2c[nH]c3ncc(-c4ccc(Cl)cc4)cc23)c1F [Vemurafenib] + CC1(C)CCC(c2ccc(Cl)cc2)=C(CN2CCN(c3ccc(C(=O)NS(=O)(=O)c4ccc(N[C@H](CCN5CCOCC5)CSc5ccccc5)c(S(=O)(=O)C(F)(F)F)c4)cc3)CC2)C1 [Navitoclax] (partner 0.5 µM)
Method in brief: (§1)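 Cells from lung cancer lines were seeded into 1536-well plates and, one day later, dosed by pin tool. Treatments were either a single drug or a fixed dose of an anchor drug with five library-drug doses (not always all listed) in √10 steps. After 5 days, nuclei were stained in a one-step fixation (final 0.05% Triton X-100, 1% formaldehyde, 1 ug/ml Hoechst) and counted on 4× images, and relative viability is the treated-to-vehicle nuclei ratio, as the median of duplicate plates.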

Alpelisib + Navitoclax = compound: Cc1nc(NC(=O)N2CCC[C@H]2C(N)=O)sc1-c1ccnc(C(C)(C)C(F)(F)F)c1 [Alpelisib] + CC1(C)CCC(c2ccc(Cl)cc2)=C(CN2CCN(c3ccc(C(=O)NS(=O)(=O)c4ccc(N[C@H](CCN5CCOCC5)CSc5ccccc5)c(S(=O)(=O)C(F)(F)F)c4)cc3)CC2)C1 [Navitoclax] (partner 0.5 µM)
Method in brief: as §1

Vemurafenib + Decitabine = compound: CCCS(=O)(=O)Nc1ccc(F)c(C(=O)c2c[nH]c3ncc(-c4ccc(Cl)cc4)cc23)c1F [Vemurafenib] + Nc1ncn([C@H]2C[C@H](O)[C@@H](CO)O2)c(=O)n1 [Decitabine] (partner 2 µM)
Method in brief: as §1

OSI-027 + Pictilisib = compound: COc1cccc2cc(-c3nc([C@H]4CC[C@H](C(=O)O)CC4)n4ncnc(N)c34)[nH]c12 [OSI-027] + CS(=O)(=O)N1CCN(Cc2cc3nc(-c4cccc5[nH]ncc45)nc(N4CCOCC4)c3s2)CC1 [Pictilisib] (partner 1 µM)
Method in brief: as §1

Cell Line | relative viability (Vemurafenib + Navitoclax; first compound 0.03162 µM) | relative viability (Vemurafenib + Navitoclax; first compound 0.1 µM) | relative viability (Vemurafenib + Navitoclax; first compound 1 µM) | relative viability (Alpelisib + Navitoclax; first compound 0.04 µM) | relative viability (Alpelisib + Navitoclax; first compound 0.1265 µM) | relative viability (Alpelisib + Navitoclax; first compound 0.4 µM) | relative viability (Alpelisib + Navitoclax; first compound 1.265 µM) | relative viability (Alpelisib + Navitoclax; first compound 4 µM) | relative viability (Vemurafenib + Decitabine; first compound 0.03162 µM) | relative viability (Vemurafenib + Decitabine; first compound 0.1 µM) | relative viability (Vemurafenib + Decitabine; first compound 1 µM) | relative viability (OSI-027 + Pictilisib; first compound 0.01 µM) | relative viability (OSI-027 + Pictilisib; first compound 0.03162 µM) | relative viability (OSI-027 + Pictilisib; first compound 0.1 µM) | relative viability (OSI-027 + Pictilisib; first compound 0.3162 µM) | relative viability (OSI-027 + Pictilisib; first compound 1 µM) | relative viability (Vemurafenib + Navitoclax; first compound 0.3162 µM) | relative viability (Vemurafenib + Decitabine; first compound 0.3162 µM)
HCC-366 | 0.997 | 0.983 | 1.03 | 1.02 | 1.08 | 1.05 | 0.681 | 0.334 | 0.332 | 0.327 | 0.333 | 0.179 | 0.154 | 0.165 | 0.124 | 0.0569 |  | 
HCC-827 | 0.967 |  | 1.02 | 1 | 1.02 | 1.06 | 1.01 | 0.908 | 0.27 |  | 0.35 | 0.9 | 0.76 | 0.891 | 0.878 | 0.483 | 1 | 0.326
HOP-62 | 0.939 | 1.12 | 1.05 | 1 | 0.893 | 1.12 | 0.606 | 1.06 | 0.196 | 0.202 | 0.2 | 0.565 | 0.76 | 0.467 | 0.674 | 0.254 | 0.966 | 0.216
IA-LM | 0.643 | 0.806 | 0.665 | 0.894 | 0.727 | 0.736 | 0.628 | 0.718 |  |  |  | 0.423 | 0.176 | 0.181 | 0.119 | 0.107 | 0.794 | 
LC-2-ad | 0.457 | 0.422 | 0.46 | 0.441 | 0.394 | 0.364 | 0.332 | 0.285 | 0.8 | 0.706 | 0.796 | 0.427 | 0.373 | 0.501 | 0.474 | 0.221 | 0.535 | 0.859
LCLC-97TM1 | 0.411 | 0.371 | 0.486 | 0.411 | 0.371 | 0.33 | 0.206 | 0.142 |  | 0.236 | 0.213 | 0.211 | 0.208 | 0.199 | 0.116 | 0.126 | 0.533 | 0.242
LCLC-103H |  |  |  |  |  |  |  |  | 0.698 | 0.714 | 0.75 | 0.588 | 0.641 | 0.582 | 0.568 | 0.561 |  | 0.717
LK-2 | 0.736 | 0.963 | 0.529 | 0.751 | 0.72 | 0.697 | 0.374 | 0.507 | 0.243 | 0.342 | 0.254 | 0.627 | 0.474 | 0.305 | 0.251 | 0.23 | 0.753 | 0.321
LOU-NH91 | 0.698 | 0.369 | 0.759 | 0.707 | 0.637 | 0.526 | 0.504 | 0.343 | 0.74 | 0.638 | 0.863 | 0.544 | 0.555 | 0.489 | 0.472 | 0.447 |  | 0.703
LU99A | 0.714 | 0.752 | 0.796 | 0.785 | 0.716 | 0.773 | 0.546 | 0.426 | 0.843 | 0.907 | 0.719 | 0.315 | 0.294 | 0.259 | 0.18 | 0.189 | 0.869 | 
LXF-289 | 0.853 | 0.883 | 1.03 | 0.91 | 0.972 | 0.968 | 0.917 | 0.939 | 0.329 | 0.303 | 0.35 | 0.778 | 0.714 | 0.752 | 0.511 | 0.46 | 0.951 | 0.377
NCI-H23 | 0.894 | 0.9 | 0.796 | 0.708 | 0.856 | 0.851 | 0.532 | 0.535 | 0.287 | 0.272 | 0.322 | 0.491 | 0.403 | 0.407 | 0.312 | 0.245 | 0.888 | 0.353
NCI-H322M | 1.09 |  | 1.1 | 0.908 | 1.07 | 1.29 | 0.941 | 0.936 | 0.721 |  | 0.707 | 0.574 | 0.443 | 0.485 | 0.416 | 0.405 | 1.44 | 0.86
NCI-H358 |  |  |  |  |  |  |  |  | 0.211 | 0.228 | 0.229 | 0.334 | 0.333 | 0.273 | 0.267 | 0.284 |  | 0.226
NCI-H522 |  |  |  |  |  |  |  |  | 0.668 | 0.607 | 0.692 |  |  |  |  |  |  | 0.624
NCI-H650 |  |  |  |  |  |  |  |  | 0.311 | 0.334 | 0.33 | 0.882 | 0.745 | 0.702 | 0.452 | 0.345 |  | 0.308
NCI-H661 |  |  |  |  |  |  |  |  | 0.521 | 0.495 | 0.625 | 0.42 | 0.392 | 0.344 | 0.254 | 0.268 |  | 0.567
NCI-H1299 | 1.03 | 1.03 | 1.03 | 1.05 | 1.05 | 1.07 | 1.01 | 1.02 |  |  |  | 0.787 | 0.627 | 0.548 | 0.338 | 0.242 | 0.976 | 
NCI-H1563 |  |  |  |  |  |  |  |  |  |  |  | 0.619 | 0.625 | 0.604 | 0.631 | 0.673 |  | 
NCI-H1648 |  |  |  |  |  |  |  |  |  | 0.351 | 0.463 |  |  |  |  |  |  | 0.762
NCI-H1703 | 1.19 | 1.24 | 0.933 | 1.01 | 0.994 | 0.71 | 0.565 | 0.464 |  |  |  | 0.318 | 0.242 | 0.244 | 0.231 | 0.201 | 0.863 | 
NCI-H2228 | 0.687 | 0.752 | 0.841 | 0.977 | 1 | 0.552 | 0.51 | 0.294 |  |  |  | 0.412 | 0.281 | 0.474 |  | 0.249 | 1.04 | 
NCI-H2342 |  |  |  |  |  |  |  |  | 0.705 | 0.702 | 0.706 |  |  |  |  |  |  | 0.773
SW 900 |  |  |  |  |  |  |  |  | 0.428 | 0.346 | 0.466 |  |  |  |  |  |  | 0.439
